This is an account of results in US20030207872A1, “OMEGA-CARBOXYARYL SUBSTITUTED DIPHENYL UREAS AS RAF KINASE INHIBITORS” (BAYER CORPORATION, priority 2002, published 2003).

`COC(=O)c1ccc(Oc2ccc(NC(=O)Nc3ccc(Cl)c(C(F)(F)F)c3)cc2)cn1` [Entry 55, N-(4-chloro-3-(trifluoromethyl)phenyl)-N′-(4-(2-(methoxycarbonyl)-5-pyridyloxy)phenyl) urea] registered a melting point of 228 to 230 °C.

One may read the melting point as the temperature, or range, at which the solid turns liquid.
